Consider 19 compounds from ChEMBL document CHEMBL1201862, “PubChem BioAssay data set” (2004).

In one assay the target is Large T antigen (Simian virus 40, UniProt P03070). Format: functional, Betapolyomavirus macacae.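 Note: Confirmatory-stage PubChem screen for compounds that inhibit SV40 T antigen.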
For a further assay, the target named is Cytochrome P450 2D6 (Homo sapiens, UniProt P10635).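 Note: CYP2D6 member of a cytochrome P450 panel assay.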
Assay [1] concerns the target Eukaryotic translation initiation factor 4E (Mus musculus, UniProt P63073). Description: eIF4E–eIF4G protein interaction inhibitors, dose response, biochemical, TR-FRET (AID 855).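 Note: potency for disrupting eIF4E binding to eIF4GI seen as loss of FRET.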 The assay is classed as functional.
The target in a further assay is T1, Coagulation factor XII (Homo sapiens, UniProt P00748).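 Note: activated factor XIIa alpha cleaving a fluorogenic AMC peptide substrate; inhibitor potency from loss of enzyme activity.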
T1 sequence (P00748 whole entry): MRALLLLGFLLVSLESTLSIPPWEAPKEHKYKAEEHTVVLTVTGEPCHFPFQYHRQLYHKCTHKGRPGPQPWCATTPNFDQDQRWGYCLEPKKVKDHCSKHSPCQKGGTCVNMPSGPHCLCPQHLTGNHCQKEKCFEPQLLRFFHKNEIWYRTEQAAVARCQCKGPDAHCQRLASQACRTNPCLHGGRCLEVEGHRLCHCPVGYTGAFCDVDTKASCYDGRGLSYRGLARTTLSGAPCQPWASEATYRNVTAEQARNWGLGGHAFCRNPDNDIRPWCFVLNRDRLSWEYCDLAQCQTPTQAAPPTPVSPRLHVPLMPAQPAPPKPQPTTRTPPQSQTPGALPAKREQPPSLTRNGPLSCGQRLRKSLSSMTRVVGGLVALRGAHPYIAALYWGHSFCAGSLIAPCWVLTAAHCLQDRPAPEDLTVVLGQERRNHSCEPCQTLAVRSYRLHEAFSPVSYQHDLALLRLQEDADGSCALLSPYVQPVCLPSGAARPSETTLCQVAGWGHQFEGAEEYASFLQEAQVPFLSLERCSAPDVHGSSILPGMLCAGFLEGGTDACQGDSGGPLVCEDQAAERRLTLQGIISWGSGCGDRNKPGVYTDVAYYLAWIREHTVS
The assay is classed as functional.

The target in assay [2] is T2, Corticotropin-releasing factor receptor 2/Corticotropin-releasing factor-binding protein (Homo sapiens, UniProt P24387+Q13324).
T2 sequence (Q13324 whole entry): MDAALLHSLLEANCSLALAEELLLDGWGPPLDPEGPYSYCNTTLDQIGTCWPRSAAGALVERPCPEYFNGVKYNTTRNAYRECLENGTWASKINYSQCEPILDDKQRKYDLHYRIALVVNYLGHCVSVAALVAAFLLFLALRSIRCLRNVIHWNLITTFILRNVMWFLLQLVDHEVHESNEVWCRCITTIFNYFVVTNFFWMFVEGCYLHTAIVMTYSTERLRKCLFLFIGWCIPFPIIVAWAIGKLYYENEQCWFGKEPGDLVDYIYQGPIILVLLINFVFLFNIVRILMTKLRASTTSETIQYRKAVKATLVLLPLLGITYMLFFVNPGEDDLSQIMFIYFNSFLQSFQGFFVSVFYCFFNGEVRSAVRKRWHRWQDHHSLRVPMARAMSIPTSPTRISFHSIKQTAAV
T2 sequence (P24387 whole entry): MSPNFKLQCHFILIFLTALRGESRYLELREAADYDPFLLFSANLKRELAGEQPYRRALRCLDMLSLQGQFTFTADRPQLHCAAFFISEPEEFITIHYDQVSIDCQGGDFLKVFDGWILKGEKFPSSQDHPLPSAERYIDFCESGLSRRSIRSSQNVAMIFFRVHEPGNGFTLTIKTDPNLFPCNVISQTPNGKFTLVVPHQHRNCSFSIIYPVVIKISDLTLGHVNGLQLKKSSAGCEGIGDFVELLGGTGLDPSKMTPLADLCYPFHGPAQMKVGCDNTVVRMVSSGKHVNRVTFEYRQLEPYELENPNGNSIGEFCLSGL
Description: Dose Response confirmation of uHTS hits for small molecule antagonists of the CRF-binding protein and CRF-R2 receptor complex. Format: functional. To be noted: read-out: IC50_Mean.

Assay [3] deals with T2, Corticotropin-releasing factor receptor 2/Corticotropin-releasing factor-binding protein. The experiment in a line: activators of CRF receptor 2 with binding protein – uHTS hits, confirmation (AID 602473). Format: functional. To be noted: read-out: EC50_Mean.
A further assay has as its target T3, Streptokinase A (Streptococcus pyogenes serotype M1, UniProt P10520).
T3 sequence (P10520 whole entry): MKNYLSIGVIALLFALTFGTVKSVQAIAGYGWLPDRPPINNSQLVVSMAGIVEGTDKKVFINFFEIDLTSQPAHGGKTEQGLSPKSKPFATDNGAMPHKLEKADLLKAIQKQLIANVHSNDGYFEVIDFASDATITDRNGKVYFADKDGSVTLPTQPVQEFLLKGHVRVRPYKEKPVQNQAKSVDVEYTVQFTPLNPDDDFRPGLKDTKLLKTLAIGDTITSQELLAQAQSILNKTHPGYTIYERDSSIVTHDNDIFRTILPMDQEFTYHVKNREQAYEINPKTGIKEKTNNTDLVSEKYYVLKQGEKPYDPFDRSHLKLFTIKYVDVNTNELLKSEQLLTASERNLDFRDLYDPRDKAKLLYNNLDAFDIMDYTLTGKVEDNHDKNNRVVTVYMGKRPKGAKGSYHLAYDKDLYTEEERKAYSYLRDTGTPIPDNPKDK
Description: S. pyogenes streptokinase expression inhibitors, potency, dose response, plasminogen activation absorbance, OD405 (AID 1914).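 Note: secreted streptokinase activity via plasminogen activation per viability signal from cell pellet.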 The assay is classed as functional, Streptococcus pyogenes M1 GAS.

Assay [4] has as its target Induced myeloid leukemia cell differentiation protein Mcl-1 (Homo sapiens, UniProt Q07820). Format: functional.
The next assay has as its system Streptococcus. The experiment in a line: Group A Streptococcus viability loss, dose response, counter-screen for streptokinase expression inhibitor project, luminescence, BacTiterGlo (AID 1915).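 Note: potency for reduction of bacterial viability or growth.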 Format: functional, organism-based. A general note: The purpose of a counterscreen is to sort out artefacts and off-target activity.
The target of assay [5] is T4, Rac GTPase-activating protein 1 (Homo sapiens, UniProt Q9H0H5).
T4 sequence (Q9H0H5 whole entry): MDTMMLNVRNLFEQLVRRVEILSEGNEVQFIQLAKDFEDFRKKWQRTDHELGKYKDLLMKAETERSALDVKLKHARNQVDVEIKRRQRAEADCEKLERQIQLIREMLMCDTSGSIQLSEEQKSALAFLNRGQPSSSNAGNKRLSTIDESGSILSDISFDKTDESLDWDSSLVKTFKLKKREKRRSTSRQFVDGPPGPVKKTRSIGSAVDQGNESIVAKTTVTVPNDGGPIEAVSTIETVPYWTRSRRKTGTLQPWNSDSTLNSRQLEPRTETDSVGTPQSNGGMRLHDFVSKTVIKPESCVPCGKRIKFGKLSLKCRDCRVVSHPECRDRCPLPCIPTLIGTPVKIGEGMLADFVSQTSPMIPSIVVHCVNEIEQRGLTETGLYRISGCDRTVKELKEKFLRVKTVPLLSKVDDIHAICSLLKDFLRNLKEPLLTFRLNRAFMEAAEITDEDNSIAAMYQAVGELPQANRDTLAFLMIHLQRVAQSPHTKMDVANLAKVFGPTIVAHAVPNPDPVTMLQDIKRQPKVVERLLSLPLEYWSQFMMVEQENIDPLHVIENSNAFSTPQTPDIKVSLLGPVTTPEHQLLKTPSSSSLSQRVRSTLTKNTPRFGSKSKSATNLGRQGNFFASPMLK
Description: MgcRacGAP GTPase-activating activity inhibitors, confirmation, biochemical, ADP Hunter fluorescence, primary and confirmatory (AID 624330). Format: functional.

The target in another assay is T5, Cytochrome P450 1A2 (Homo sapiens, UniProt P05177).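 Note: PubChem cytochrome P450 panel assay, CYP1A2 panel member.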
T5 sequence (P05177 whole entry): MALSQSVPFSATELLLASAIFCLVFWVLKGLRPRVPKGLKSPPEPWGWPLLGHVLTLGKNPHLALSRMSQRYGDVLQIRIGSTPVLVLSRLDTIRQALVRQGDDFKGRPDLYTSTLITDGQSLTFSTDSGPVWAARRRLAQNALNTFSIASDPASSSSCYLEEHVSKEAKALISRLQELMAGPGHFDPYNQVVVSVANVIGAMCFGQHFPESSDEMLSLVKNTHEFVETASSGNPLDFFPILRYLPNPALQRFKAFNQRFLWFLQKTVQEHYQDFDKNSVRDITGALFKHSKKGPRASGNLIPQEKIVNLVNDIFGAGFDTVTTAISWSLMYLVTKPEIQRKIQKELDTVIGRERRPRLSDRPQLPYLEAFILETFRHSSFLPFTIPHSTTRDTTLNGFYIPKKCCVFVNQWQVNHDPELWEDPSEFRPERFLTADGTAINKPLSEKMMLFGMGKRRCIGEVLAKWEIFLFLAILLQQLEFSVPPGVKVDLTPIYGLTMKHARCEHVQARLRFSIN

The next assay concerns the target T6, Leucine aminopeptidase (Plasmodium falciparum 3D7, UniProt Q8IL11).
T6 sequence (Q8IL11 whole entry): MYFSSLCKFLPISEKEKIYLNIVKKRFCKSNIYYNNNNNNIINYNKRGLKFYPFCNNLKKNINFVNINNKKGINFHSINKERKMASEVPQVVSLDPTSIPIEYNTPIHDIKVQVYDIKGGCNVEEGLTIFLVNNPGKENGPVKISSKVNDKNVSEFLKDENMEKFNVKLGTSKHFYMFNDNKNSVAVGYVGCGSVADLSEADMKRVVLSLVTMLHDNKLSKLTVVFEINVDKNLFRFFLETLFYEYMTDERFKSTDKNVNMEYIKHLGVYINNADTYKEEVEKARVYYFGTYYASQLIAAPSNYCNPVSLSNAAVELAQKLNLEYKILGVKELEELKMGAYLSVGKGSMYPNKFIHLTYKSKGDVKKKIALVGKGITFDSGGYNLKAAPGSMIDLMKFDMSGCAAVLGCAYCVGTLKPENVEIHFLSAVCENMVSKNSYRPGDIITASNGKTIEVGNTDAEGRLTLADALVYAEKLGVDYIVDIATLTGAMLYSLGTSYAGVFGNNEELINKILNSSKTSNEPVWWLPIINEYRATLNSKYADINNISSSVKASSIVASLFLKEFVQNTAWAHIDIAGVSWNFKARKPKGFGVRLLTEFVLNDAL
The experiment in a line: P. falciparum M17LAP inhibitors, primary screen, biochemical, fluorogenic H-Leu-NHMec substrate, 1536-well (AID 1619). Format: functional.

What is called AC50 is the concentration giving half of the maximal activity seen.

Calls of active or inactive are those of the source.

Chain of Eukaryotic translation initiation factor 4E (P63073 whole entry): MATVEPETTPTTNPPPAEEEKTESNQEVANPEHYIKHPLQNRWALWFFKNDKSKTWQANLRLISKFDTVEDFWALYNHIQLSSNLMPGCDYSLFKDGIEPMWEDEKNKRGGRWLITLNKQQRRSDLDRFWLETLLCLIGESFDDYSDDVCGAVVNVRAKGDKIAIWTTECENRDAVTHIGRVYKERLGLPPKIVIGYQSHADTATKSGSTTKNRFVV
Chain of Induced myeloid leukemia cell differentiation protein Mcl-1 (Q07820 whole entry): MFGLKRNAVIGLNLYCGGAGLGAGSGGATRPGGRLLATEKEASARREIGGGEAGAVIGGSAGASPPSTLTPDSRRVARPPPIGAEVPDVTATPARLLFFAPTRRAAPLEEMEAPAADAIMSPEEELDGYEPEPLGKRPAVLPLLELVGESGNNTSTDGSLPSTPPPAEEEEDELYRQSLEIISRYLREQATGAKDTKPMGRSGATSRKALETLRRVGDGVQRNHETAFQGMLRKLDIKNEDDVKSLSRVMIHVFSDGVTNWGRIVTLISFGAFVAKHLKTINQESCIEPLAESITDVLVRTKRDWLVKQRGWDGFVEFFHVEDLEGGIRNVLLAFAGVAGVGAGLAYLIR
Chain of Large T antigen (P03070 whole entry): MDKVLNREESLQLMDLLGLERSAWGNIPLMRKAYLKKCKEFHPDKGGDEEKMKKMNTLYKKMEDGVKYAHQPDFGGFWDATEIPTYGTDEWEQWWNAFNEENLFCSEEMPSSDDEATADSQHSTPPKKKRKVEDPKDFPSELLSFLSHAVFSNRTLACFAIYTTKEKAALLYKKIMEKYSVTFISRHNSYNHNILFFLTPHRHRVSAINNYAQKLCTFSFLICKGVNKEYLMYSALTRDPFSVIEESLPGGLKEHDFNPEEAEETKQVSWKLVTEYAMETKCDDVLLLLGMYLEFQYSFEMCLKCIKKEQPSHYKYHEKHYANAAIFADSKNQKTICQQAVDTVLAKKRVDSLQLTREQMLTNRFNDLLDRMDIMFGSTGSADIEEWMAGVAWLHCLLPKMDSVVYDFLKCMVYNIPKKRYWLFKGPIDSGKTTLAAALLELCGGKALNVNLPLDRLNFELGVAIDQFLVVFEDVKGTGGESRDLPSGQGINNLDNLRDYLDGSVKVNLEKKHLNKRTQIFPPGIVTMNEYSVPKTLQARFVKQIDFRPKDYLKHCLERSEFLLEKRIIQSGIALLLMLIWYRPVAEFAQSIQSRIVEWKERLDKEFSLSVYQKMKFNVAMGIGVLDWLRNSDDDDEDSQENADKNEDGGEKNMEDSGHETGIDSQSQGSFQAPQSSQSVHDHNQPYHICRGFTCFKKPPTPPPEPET
Chain of Cytochrome P450 2D6 (P10635 whole entry): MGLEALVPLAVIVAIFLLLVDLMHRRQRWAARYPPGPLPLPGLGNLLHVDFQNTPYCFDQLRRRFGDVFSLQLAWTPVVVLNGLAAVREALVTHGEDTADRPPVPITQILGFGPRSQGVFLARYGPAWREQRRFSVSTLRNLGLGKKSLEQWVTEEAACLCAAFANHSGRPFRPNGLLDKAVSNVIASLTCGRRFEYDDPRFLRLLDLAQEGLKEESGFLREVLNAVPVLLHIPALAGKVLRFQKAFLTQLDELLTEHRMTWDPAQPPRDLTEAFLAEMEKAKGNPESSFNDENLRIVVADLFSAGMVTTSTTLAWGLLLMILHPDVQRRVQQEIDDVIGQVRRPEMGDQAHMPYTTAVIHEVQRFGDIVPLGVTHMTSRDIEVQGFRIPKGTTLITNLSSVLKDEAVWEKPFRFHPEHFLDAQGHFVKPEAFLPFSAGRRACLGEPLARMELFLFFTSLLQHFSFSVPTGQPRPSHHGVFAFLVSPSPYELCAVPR

Turning to `Nc1ccc(-c2sc(N)nc2-c2ccccc2)cc1`, on Large T antigen, the IC50 was 14.5 µM (active). Moreover, the AC50 on Cytochrome P450 2D6 is 17.8 µM (inconclusive).
With `CC(=O)OC1=C(C#N)Cn2ccc3cccc1c32`, the IC50 in assay [1] is > 64 µM (inactive).
Regarding `C=CCOc1c(CNc2ccc3[nH]c(O)nc3c2)cccc1OC`, the IC50 on Large T antigen was 96.9 µM (active).
With `CSC1=NSC2=NC(=O)/C(=C\c3c(C)[nH]c4ccc(C)cc34)C(=N)N12`, the IC50 on Coagulation factor XII was > 50 µM (inactive).
On to `CCOc1ccc2nc(O)c(C(c3nnnn3C3CCCCC3)N3CCN(C)CC3)cc2c1` (stereo unspecified), for which the IC50 on Coagulation factor XII was > 50 µM (inactive).
As to `Brc1cccc(C2CC(c3ccccc3)n3nnnc3N2)c1` (stereo unspecified), the IC50 in assay [1] was > 64 µM (inactive); in assay [2], > 47.1 µM (inactive). Moreover, the EC50 in [3] was > 53 µM (inactive).
In the case of `O=C(NC(=S)Nc1ccc(O)cc1)c1ccccc1Cl`, the IC50 on Large T antigen was 6.97 µM (active).
For the compound `COC(=O)c1c(NC(=O)c2c(-c3ccccc3Cl)noc2C)sc2c1CCC2`, the IC50 on Coagulation factor XII is 4.24 µM (active).
Take `Nc1ccc2[nH]c(-c3ccc(Cl)cc3)nc2c1`: the EC50 at Streptokinase A and with Streptococcus was > 150 µM (not active) in each case. For the same compound, the IC50 in assay [4] is 8.16 µM (not active); in assay [5], 37.8 µM (active).
As to `CCOC(=O)c1c(NC(=O)c2ccc(Br)o2)sc2c1CCCC2`, the IC50 at Coagulation factor XII is > 50 µM (inactive).
Take `CC(NC(=O)c1ccc(Cn2cc([N+](=O)[O-])cn2)o1)c1ccccc1` (stereo unspecified): the IC50 in [1] was > 64 µM (inactive). On Cytochrome P450 1A2, the AC50 was 17.8 µM (inconclusive).
Turning to `O=C(NCCc1ccccc1)c1cc(=O)c2ccccc2o1`, the IC50 at Coagulation factor XII is > 50 µM (inactive).
Consider `FC(F)C(F)(F)C(F)(F)C(F)(F)c1cc(-c2ccccc2)n[nH]1`, for which the IC50 at Coagulation factor XII was > 50 µM (inactive).
With `OC1=C2C(=Nc3nc(S)nc(O)c3C2c2ccc(Br)cc2)CCC1` (stereo unspecified), the IC50 on Leucine aminopeptidase was 16.7 µM (active); on Large T antigen, 48.1 µM (active); in assay [1] it was > 64 µM (inactive).
In the case of `Cc1ccc([N+](=O)[O-])cc1-c1ccc2cccc(C)c2n1`, the IC50 in [1] was > 64 µM (inactive).
As to `Cc1cccc2cc(/C=N/NC(=O)c3ccccc3O)c(Cl)nc12`, the IC50 in [4] was 5.52 µM (active). Moreover, the EC50 in assay [3] was > 53 µM (inactive).
`Cn1c(SCC(=O)N/N=C/c2ccc(O)c(O)c2)nc2ccccc21`: on Large T antigen, the IC50 is 3.29 µM (active).
Take `CC(=O)Nc1sc(N/N=C\c2ccco2)nc1-c1cccs1`: the IC50 was 50.8 µM (active) on Large T antigen and 5.23 µM (active) in assay [4].
As to `COc1cc(/C=N/n2cnnc2)ccc1OC(=O)c1cccnc1`, the IC50 on Coagulation factor XII was > 50 µM (inactive); in [5], 32 µM (active).
